Measurements from patent publication US6875451B2, “Compositions and methods for the treatment of primary and metastatic neoplastic diseases using arsenic compounds” (PolaRx Biopharmaceuticals Inc., priority 1997, dated 2005).

Columns and labels:
Type in all cases: cell-based
50 different cell lines = test: NCI cancer cell line panel, SRB assay, second set, 6 days exposure (whole panel, mean graph)
Protocol: (§1) Arsenic trioxide (1 mg/ml, 10 mg/ampoule, manufactured by Taylor Pharmaceuticals, Decatur, Ill.) was tested at five concentrations each at 10-fold dilutions, i.e., 10^−5, 10^−6, 10^−7, 10^−8 and 10^−9 μg/ml.
(§2) The in vitro tests were performed by incubating the test cells in the presence of the indicated concentration of arsenic trioxide under standard culture conditions for a designated period of time, which is followed by a sulforhodamine B (SRB) protein assay to estimate cell viability or growth. The cell lines are organized into subpanels according to the origin of the cell lines, e.g., leukemia, breast cancer, etc. A description of the cell lines and method of testing is described in Monk et al. (1997, Anticancer Drug Des. 12:533-41) and Weinstein et al., (1997, Science 275:343-9), which are incorporated herein in their entirety.
The measurement of an effect is expressed in Percentage Growth (PG). […]
The first two columns describe the subpanel (e.g., leukemia) and cell line (e.g., CCRF-CEM) involved. […] Each concentration is expressed as the log10 (molar or μg/ml). The next five columns list the calculated PGs for each concentration. […]

HCT-116 = test: SRB growth assay, 2 days exposure, colon cancer
Protocol: as §1, §2
(§3) The measurement of an effect is expressed in Percentage Growth (PG). The measured effect of the compound on a cell line is calculated according to one or the other of the following two expressions: If (Mean ODtest−Mean ODzero)≧0. then PG=100×(Mean ODtest−Mean ODzero)/(Mean ODctrl−Mean ODzero) If (Mean ODtest−Mean ODzero)<0. then PG=100×(Mean ODtest−Mean ODzero)/(Mean ODzero where: • Mean ODzero=the average of optical density measurements of SRB-derived color just before exposure of cells to the test compounds; • Mean ODtest=the average of optical density measurements of SRB-derived color after exposure of cells to the test compound for a designated period of time; and • Mean ODctrl=the average of optical density measurements of SRB-derived color after with no exposure of cells to the test compound for a designated period of time
(§4) The first two columns describe the subpanel (e.g., leukemia) and cell line (e.g., CCRF-CEM) involved. The next two columns list the Mean ODzero and Mean ODctrl; the next five columns list the Mean ODtest for each of five different concentrations. Each concentration is expressed as the log10 (molar or μg/ml). The next five columns list the calculated PGs for each concentration. The response parameters GI50, TGI and LC50 are interpolated values representing the concentrations at which the PG is +50, 0, and −50, respectively. Sometimes these response parameters cannot be obtained by interpolation. If, for instance, all of the PGs in a given row exceed +50, then none of the three parameters can be obtained by interpolation. In such a case, the value given for each response parameter is the highest concentration tested and is preceded by a “>” sign. This practice is extended similarly to the other possible situations where a response parameter cannot be obtained by interpolation.
(§5) In the first set, the cells from 56 different cancer cell lines were exposed to five concentrations of arsenic trioxide continuously for two days prior to performing the SRB assay. In the second set, the cells from 50 different cell lines (a subset of the first 56 cell lines, plus the renal cancer cell line 786-0) were exposed continuously for six days prior to the SRB assay.

KM12 = test: SRB growth assay, 2 days exposure, colon cancer
Protocol: as §1, §2, §3, §4, §5

SK-OV-3 = test: SRB growth assay, 6 days exposure, ovarian cancer; details: SK-OV-3, 6 days
Protocol: as §1, §2, §3, §4, §5

IGROVI = test: SRB growth assay, 6 days exposure, ovarian cancer; details: IGROV1, 6 days
Protocol: as §1, §2, §3, §4, §5

OVCAR-8 = test: SRB growth assay, 6 days exposure, ovarian cancer; details: OVCAR-8, 6 days
Protocol: as §1, §2, §3, §4, §5

OVCAR-5 = test: SRB growth assay, 6 days exposure, ovarian cancer; details: OVCAR-5, 6 days
Protocol: as §1, §2, §3, §4, §5

OVCAR-3 = test: SRB growth assay, 6 days exposure, ovarian cancer; details: OVCAR-3, 6 days
Protocol: as §1, §2, §3, §4, §5

[1] = read-out: LC50 (the source's name)

arsenic trioxide
reducing cell growth (50 different cell lines; second set of tests, all cell lines tested): effective in reducing cell growth against all the cell lines tested | sensitivity at the various principal response parameters (50 different cell lines; several melanoma cell lines): especially sensitive | TGI (HCT-116): >0.0126 ng/mL | Percent Growth (HCT-116; log10 conc −4.9): 30% | Percent Growth (HCT-116; log10 conc −5.9): 86% | Percent Growth (HCT-116; log10 conc −6.9): 93% | Percent Growth (HCT-116; log10 conc −7.9): 93% | Percent Growth (HCT-116; log10 conc −8.9): 95% | TGI (KM12): >0.0126 ng/mL | Percent Growth (KM12; log10 conc −4.9): 68% | Percent Growth (KM12; log10 conc −5.9): 99% | Percent Growth (KM12; log10 conc −6.9): 106% | Percent Growth (KM12; log10 conc −7.9): 98% | Percent Growth (KM12; log10 conc −8.9): 101% | TGI (SK-OV-3): 5.27E−06 | Mean Optical Densities (SK-OV-3; Log 10 Concentration −4.9): 0.020 | Percent Growth (SK-OV-3; Log 10 Concentration −4.9): −51% | Mean Optical Densities (SK-OV-3; Log 10 Concentration −5.9): 1.247 | Percent Growth (SK-OV-3; Log 10 Concentration −5.9): 84% | Mean Optical Densities (SK-OV-3; Log 10 Concentration −6.9): 1.461 | Percent Growth (SK-OV-3; Log 10 Concentration −6.9): 99% | Mean Optical Densities (SK-OV-3; Log 10 Concentration −7.9): 1.410 | Percent Growth (SK-OV-3; Log 10 Concentration −7.9): 96% | Mean Optical Densities (SK-OV-3; Log 10 Concentration −8.9): 1.445 | Percent Growth (SK-OV-3; Log 10 Concentration −8.9): 98% | TGI (IGROVI): 6.62E−06 | Mean Optical Densities (IGROVI; Log 10 Concentration −4.9): 0.216 | Percent Growth (IGROVI; Log 10 Concentration −4.9): −36% | Mean Optical Densities (IGROVI; Log 10 Concentration −5.9): 2.877 | Percent Growth (IGROVI; Log 10 Concentration −5.9): 91% | Mean Optical Densities (IGROVI; Log 10 Concentration −6.9): 3.204 | Percent Growth (IGROVI; Log 10 Concentration −6.9): 103% | Mean Optical Densities (IGROVI; Log 10 Concentration −7.9): 3.056 | Percent Growth (IGROVI; Log 10 Concentration −7.9): 98% | Mean Optical Densities (IGROVI; Log 10 Concentration −8.9): 3.541 | Percent Growth (IGROVI; Log 10 Concentration −8.9): 115% | CC50 (IGROVI; [1]): > 12.6 µM | TGI (OVCAR-8): 3.21E−06 | Mean Optical Densities (OVCAR-8; Log 10 Concentration −4.9): −0.001 | Percent Growth (OVCAR-8; Log 10 Concentration −4.9): −100% | Mean Optical Densities (OVCAR-8; Log 10 Concentration −5.9): 1.437 | Percent Growth (OVCAR-8; Log 10 Concentration −5.9): 68% | Mean Optical Densities (OVCAR-8; Log 10 Concentration −6.9): 2.242 | Percent Growth (OVCAR-8; Log 10 Concentration −6.9): 107% | Mean Optical Densities (OVCAR-8; Log 10 Concentration −7.9): 1.848 | Percent Growth (OVCAR-8; Log 10 Concentration −7.9): 88% | Mean Optical Densities (OVCAR-8; Log 10 Concentration −8.9): 2.272 | Percent Growth (OVCAR-8; Log 10 Concentration −8.9): 109% | TGI (OVCAR-5): 7.53E−06 | Mean Optical Densities (OVCAR-5; Log 10 Concentration −4.9): 0.028 | Percent Growth (OVCAR-5; Log 10 Concentration −4.9): −26% | Mean Optical Densities (OVCAR-5; Log 10 Concentration −5.9): 1.287 | Percent Growth (OVCAR-5; Log 10 Concentration −5.9): 91% | Mean Optical Densities (OVCAR-5; Log 10 Concentration −6.9): 1.478 | Percent Growth (OVCAR-5; Log 10 Concentration −6.9): 105% | Mean Optical Densities (OVCAR-5; Log 10 Concentration −7.9): 1.460 | Percent Growth (OVCAR-5; Log 10 Concentration −7.9): 104% | Mean Optical Densities (OVCAR-5; Log 10 Concentration −8.9): 1.433 | Percent Growth (OVCAR-5; Log 10 Concentration −8.9): 102% | CC50 (OVCAR-5; [1]): > 12.6 µM | TGI (OVCAR-3): 2.36E−06 | Mean Optical Densities (OVCAR-3; Log 10 Concentration −4.9): 0.001 | Percent Growth (OVCAR-3; Log 10 Concentration −4.9): −99% | Mean Optical Densities (OVCAR-3; Log 10 Concentration −5.9): 0.482 | Percent Growth (OVCAR-3; Log 10 Concentration −5.9): 37% | Mean Optical Densities (OVCAR-3; Log 10 Concentration −6.9): 1.124 | Percent Growth (OVCAR-3; Log 10 Concentration −6.9): 97% | Mean Optical Densities (OVCAR-3; Log 10 Concentration −7.9): 1.128 | Percent Growth (OVCAR-3; Log 10 Concentration −7.9): 98% | Mean Optical Densities (OVCAR-3; Log 10 Concentration −8.9): 1.047 | Percent Growth (OVCAR-3; Log 10 Concentration −8.9): 90%
